# Test results: patent US20170008888A1 (KYORIN PHARMACEUTICAL CO., LTD., priority 2014, published 2017)
# Where two headings read alike, the source gives them in different places.
# Key:
# TAO2 = target: T1, TAO2 (Homo sapiens, UniProt Q9UL54); test: Probe-based (AX9989) kinase profiling in Jurkat lysate: TAO2; assay type: binding; details: for inhibition at 0.1 µM: screening concentration 0.1 μM
# T1 construct: screened for activity against several kinases in Jurkat cells; endogenous in cells; host or cells: Jurkat cell lysate
# T1 sequence (Q9UL54 1-1235): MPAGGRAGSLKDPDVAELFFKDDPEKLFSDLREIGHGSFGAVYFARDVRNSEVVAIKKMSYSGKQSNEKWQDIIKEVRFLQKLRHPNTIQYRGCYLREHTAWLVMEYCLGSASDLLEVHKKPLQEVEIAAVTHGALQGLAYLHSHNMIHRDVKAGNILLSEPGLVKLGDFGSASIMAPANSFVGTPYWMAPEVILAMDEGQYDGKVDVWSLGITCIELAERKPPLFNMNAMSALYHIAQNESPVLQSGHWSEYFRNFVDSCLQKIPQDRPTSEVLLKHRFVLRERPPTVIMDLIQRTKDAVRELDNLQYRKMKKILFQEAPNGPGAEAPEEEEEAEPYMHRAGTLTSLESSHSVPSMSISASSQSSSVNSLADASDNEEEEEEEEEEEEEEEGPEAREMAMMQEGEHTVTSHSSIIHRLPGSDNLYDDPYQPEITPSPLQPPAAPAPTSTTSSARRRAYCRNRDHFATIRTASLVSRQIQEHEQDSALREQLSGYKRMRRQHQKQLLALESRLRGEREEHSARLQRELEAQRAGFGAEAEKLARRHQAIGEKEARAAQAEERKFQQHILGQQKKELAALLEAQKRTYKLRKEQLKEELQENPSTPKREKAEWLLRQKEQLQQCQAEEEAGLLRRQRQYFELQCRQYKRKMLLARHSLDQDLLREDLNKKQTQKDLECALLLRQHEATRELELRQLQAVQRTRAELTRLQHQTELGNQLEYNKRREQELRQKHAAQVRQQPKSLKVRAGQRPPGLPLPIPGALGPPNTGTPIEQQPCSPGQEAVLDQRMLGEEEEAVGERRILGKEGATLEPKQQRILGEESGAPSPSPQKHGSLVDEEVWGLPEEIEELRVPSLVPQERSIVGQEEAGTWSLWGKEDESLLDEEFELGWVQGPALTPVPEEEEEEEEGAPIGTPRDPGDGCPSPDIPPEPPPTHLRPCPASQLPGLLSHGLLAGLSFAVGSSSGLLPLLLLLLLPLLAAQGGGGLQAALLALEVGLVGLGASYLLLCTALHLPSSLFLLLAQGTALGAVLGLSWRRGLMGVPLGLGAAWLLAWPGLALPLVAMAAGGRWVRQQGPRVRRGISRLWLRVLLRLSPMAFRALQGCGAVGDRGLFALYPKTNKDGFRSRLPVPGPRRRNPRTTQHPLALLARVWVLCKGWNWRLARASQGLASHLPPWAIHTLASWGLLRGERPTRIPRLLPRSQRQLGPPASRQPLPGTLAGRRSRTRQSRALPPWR
# Method in brief: (§1)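 Jurkat lysate (50 mM HEPES pH 7.5, 150 mM NaCl, 0.1% Triton X-100, 20 mM MnCl2) pre-incubated 15 min with compound at room temperature, then labeled with 5 μM acyl phosphate ATP probe AX9989. Tryptic probe-labeled peptides streptavidin-captured and quantified by LC/MS; percent inhibition from decreased fragment intensity versus untreated.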
# ABL or ARG = test: Probe-based (AX9989) kinase profiling in Jurkat lysate: ABL or ARG; assay type: binding
# Method in brief: as §1
# ERK5 = target: T2, ERK5 (Homo sapiens, UniProt Q13164); test: Probe-based (AX9989 acyl phosphate ATP probe) kinase profiling in Jurkat lysate: ERK5; assay type: binding; details: for IC50: Jurkat lysate; for inhibition at 0.1 µM: screening concentration 0.1 μM
# T2 construct: screened for activity against several kinases in Jurkat cells; endogenous in cells; host or cells: Jurkat cell lysate
# T2 sequence (Q13164 whole entry): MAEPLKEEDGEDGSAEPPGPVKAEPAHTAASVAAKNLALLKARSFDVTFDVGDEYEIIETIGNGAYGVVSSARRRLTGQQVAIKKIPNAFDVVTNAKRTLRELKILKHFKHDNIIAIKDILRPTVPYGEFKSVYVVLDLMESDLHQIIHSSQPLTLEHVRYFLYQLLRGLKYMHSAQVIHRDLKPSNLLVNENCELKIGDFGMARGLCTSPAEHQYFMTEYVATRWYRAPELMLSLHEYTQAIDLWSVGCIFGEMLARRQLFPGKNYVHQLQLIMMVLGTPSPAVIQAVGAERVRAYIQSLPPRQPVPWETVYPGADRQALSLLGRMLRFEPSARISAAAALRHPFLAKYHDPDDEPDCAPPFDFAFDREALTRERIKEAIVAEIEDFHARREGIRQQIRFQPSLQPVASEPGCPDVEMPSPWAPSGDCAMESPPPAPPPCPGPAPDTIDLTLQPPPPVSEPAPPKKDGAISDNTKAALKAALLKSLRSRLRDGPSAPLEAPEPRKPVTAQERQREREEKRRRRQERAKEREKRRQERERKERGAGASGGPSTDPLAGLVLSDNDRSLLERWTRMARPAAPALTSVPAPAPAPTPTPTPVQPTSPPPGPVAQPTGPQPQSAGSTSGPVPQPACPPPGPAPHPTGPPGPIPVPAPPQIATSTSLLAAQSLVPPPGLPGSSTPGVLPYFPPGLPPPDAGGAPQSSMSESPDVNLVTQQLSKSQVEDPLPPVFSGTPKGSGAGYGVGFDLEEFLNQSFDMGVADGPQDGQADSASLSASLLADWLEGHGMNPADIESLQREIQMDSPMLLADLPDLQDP
# Method in brief: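 ERK5 IC50 values came from percent inhibition at the screening concentration, measured as loss of LC/MS signal of probe-labelled active-site peptides. Compound was added for 15 min at room temperature to Jurkat lysate (5 mg/ml, 20 mM MnCl2) before labelling with AX9989 ATP acyl phosphate probe at 5 μM.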
# human PBMCs = test: Human PBMC TNF-α response to endotoxin (ELISA); assay type: cell-based; details: 0.1 μg/ml LPS 16 h, read-out: EC50 for the inhibition of the human PBMC TNF-α response to endotoxin, ave. ± S.D.
# Method in brief: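 PBMCs at 2e6 cells/ml in RPMI 1640 with 10% charcoal-dextran-treated FBS were pre-treated 1 h at 37 °C with compound (4-point 1:5 dilution from 10 μM). Stimulation with 0.1 μg/ml E. coli 0111:B4 LPS for 16 h; TNF-α measured by ELISA (A450) in 25-fold diluted supernatant.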
# ACK = target: T3, ACK (Homo sapiens, UniProt Q07912); test: Probe-based (AX9989) kinase profiling in Jurkat lysate: ACK; assay type: binding; details: for inhibition at 0.1 µM: screening concentration 0.1 μM
# T3 construct: screened for activity against several kinases in Jurkat cells; endogenous in cells; host or cells: Jurkat cell lysate
# T3 sequence (Q07912 whole entry): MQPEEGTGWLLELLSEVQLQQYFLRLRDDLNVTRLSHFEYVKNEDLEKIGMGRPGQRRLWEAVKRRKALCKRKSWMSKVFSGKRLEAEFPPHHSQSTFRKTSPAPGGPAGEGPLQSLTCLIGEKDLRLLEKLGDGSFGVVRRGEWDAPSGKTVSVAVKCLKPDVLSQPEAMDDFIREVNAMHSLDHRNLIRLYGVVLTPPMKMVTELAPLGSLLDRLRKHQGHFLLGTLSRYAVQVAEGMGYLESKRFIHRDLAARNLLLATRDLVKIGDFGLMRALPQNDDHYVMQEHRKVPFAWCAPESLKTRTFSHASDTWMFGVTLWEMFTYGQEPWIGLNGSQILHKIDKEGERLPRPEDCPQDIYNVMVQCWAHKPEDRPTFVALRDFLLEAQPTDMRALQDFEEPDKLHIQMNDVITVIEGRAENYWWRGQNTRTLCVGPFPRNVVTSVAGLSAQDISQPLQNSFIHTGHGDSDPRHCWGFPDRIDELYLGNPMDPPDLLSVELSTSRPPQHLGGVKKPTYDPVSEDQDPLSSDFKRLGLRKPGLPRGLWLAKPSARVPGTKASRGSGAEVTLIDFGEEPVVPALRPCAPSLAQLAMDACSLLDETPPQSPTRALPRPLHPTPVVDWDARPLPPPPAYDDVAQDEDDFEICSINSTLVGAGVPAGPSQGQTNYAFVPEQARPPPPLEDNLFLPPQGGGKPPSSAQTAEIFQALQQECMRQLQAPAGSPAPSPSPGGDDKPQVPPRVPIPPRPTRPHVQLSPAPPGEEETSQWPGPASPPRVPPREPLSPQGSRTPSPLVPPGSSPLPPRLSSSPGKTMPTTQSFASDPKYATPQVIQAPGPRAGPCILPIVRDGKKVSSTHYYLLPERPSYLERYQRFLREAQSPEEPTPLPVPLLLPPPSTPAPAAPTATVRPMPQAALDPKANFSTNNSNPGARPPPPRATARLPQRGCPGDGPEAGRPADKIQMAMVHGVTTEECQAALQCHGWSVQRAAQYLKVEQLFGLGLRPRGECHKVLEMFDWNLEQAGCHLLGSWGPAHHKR
# Method in brief: as §1
# [1] = calculated from percent inhibition and screening concentration, AX9989 probe
# [2] = screening concentration 1 μM, read-out: TAO2 Inhibition % at indicated screening concentration
# [3] = screening concentration 1 μM, read-out: ERK5 Inhibition % at indicated screening concentration
# [4] = screening concentration 1 μM, read-out: ACK Inhibition % at indicated screening concentration
# [5] = screening concentration 1.0 μM, read-out: Kinase inhibition % at indicated screening concentration: TAO2
# [6] = calculated from percent inhibition of AX9989 labeling and the screening concentration
# [7] = screening concentration 1.0 μM, read-out: Kinase inhibition % at indicated screening concentration: ERK5
# [8] = screening concentration 1.0 μM, read-out: Kinase inhibition % at indicated screening concentration: ACK
# [9] = read-out: Kinase inhibition % at indicated screening concentration: TAO2
# [10] = read-out: Kinase inhibition % at indicated screening concentration: ERK5
# [11] = read-out: Kinase inhibition % at indicated screening concentration: ACK
IC50 (ERK5; [1]) [nM],inhibition at 1 µM (TAO2; [5]) [%],Kinase inhibition % at indicated screening concentration: ABL or ARG (ABL or ARG; screening concentration 1.0 μM),IC50 (ERK5; [6]) [nM],inhibition at 1 µM (ERK5; [7]) [%],inhibition at 1 µM (ACK; [8]) [%],Compound,EC50 (human PBMCs) [nM],other results
101 to 500,,,,,,CN1C(=O)c2c(F)cccc2Oc2cc(N[C@H]3CC[C@H](O)CC3)ncc21 [Compound T92],440 ± 290,"inhibition at 10 µM (TAO2; screening concentration 10 μM, read-out: TAO2 Inhibition % at indicated screening concentration): 50 to 75%; ABL or ARG Inhibition % at indicated screening concentration (ABL or ARG; screening concentration 10 μM): E (E is ≦35%); inhibition at 10 µM (ERK5; screening concentration 10 μM, read-out: ERK5 Inhibition % at indicated screening concentration): > 90%; inhibition at 10 µM (ACK; screening concentration 10 μM, read-out: ACK Inhibition % at indicated screening concentration): ≤ 35%"
≤ 50,,,,,,CCOc1cc(C(=O)N2CCN(C(C)=O)CC2)ccc1Nc1cc2c(cn1)N(C)C(=O)c1ccccc1N2C [Compound T18],820 ± 100,inhibition at 1 µM (TAO2; [2]): ≤ 35%; ABL or ARG Inhibition % at indicated screening concentration (ABL or ARG; screening concentration 1 μM): E (E is ≦35%); inhibition at 1 µM (ERK5; [3]): > 90%; inhibition at 1 µM (ACK; [4]): ≤ 35%
,≤ 35,E (E is ≦35%),101 to 500,75 to 90,≤ 35,COc1cc(NS(C)(=O)=O)ccc1Nc1cc2c(cn1)N(C)C(=O)c1ccccc1N2C [Compound 73],1840,
,,,≤ 50,,,CCOc1cc(C(=O)N2CCC[C@H](O)C2)ccc1Nc1cc2c(cn1)N(C)C(=O)c1ccccc1N2C [Compound 96],570,inhibition at 0.1 µM (TAO2; [9]): ≤ 35%; Kinase inhibition % at indicated screening concentration: ABL or ARG (ABL or ARG; screening concentration 0.1 μM): E (E is ≦35%); inhibition at 0.1 µM (ERK5; [10]): > 90%; inhibition at 0.1 µM (ACK; [11]): ≤ 35%
≤ 50,,,,,,CCOc1cc(C(=O)N2CCN(C3CCN(C)CC3)CC2)ccc1Nc1cc2c(cn1)N(C)C(=O)c1ccccc1N2C [Compound T8],410 ± 120,inhibition at 1 µM (TAO2; [2]): ≤ 35%; ABL or ARG Inhibition % at indicated screening concentration (ABL or ARG; screening concentration 1 μM): E (E is ≦35%); inhibition at 1 µM (ERK5; [3]): > 90%; inhibition at 1 µM (ACK; [4]): ≤ 35%
,≤ 35,E (E is ≦35%),101 to 500,75 to 90,≤ 35,CCOc1cc(C(=O)NCCCN(CC)CC)ccc1Nc1cc2c(cn1)N(C)C(=O)c1ccccc1N2C [Compound 54],600,
,≤ 35,E (E is ≦35%),101 to 500,75 to 90,≤ 35,CCOc1cc(C(=O)NCCOCCO)ccc1Nc1cc2c(cn1)N(C)C(=O)c1ccccc1N2C [Compound 101],970,
,≤ 35,E (E is ≦35%),101 to 500,75 to 90,≤ 35,CCOc1cc(C(=O)NCCN2CCCC2)ccc1Nc1cc2c(cn1)N(C)C(=O)c1ccccc1N2C [Compound 105],1100,
,≤ 35,E (E is ≦35%),≤ 50,≤ 35,≤ 35,CCOc1cc(C(=O)N2CCOCC2)ccc1Nc1cc2c(cn1)N(C)C(=O)c1ccccc1N2C [Compound 111],540,
,≤ 35,E (E is ≦35%),101 to 500,50 to 75,≤ 35,CCOc1cc(C(=O)NCC2CC2)ccc1Nc1cc2c(cn1)N(C)C(=O)c1ccccc1N2C [Compound 57],1080,
≤ 50,,,,,,CCOc1cc(C(=O)N2CC[C@@H](N3CCN(C)CC3)C2)ccc1Nc1cc2c(cn1)N(C)C(=O)c1ccccc1N2C [Compound T20],460 ± 140,inhibition at 1 µM (TAO2; [2]): ≤ 35%; ABL or ARG Inhibition % at indicated screening concentration (ABL or ARG; screening concentration 1 μM): E (E is ≦35%); inhibition at 1 µM (ERK5; [3]): > 90%; inhibition at 1 µM (ACK; [4]): ≤ 35%
,≤ 35,E (E is ≦35%),≤ 50,> 90,≤ 35,CCOc1cc(C(=O)N2CCN(CCOCCO)CC2)ccc1Nc1cc2c(cn1)N(C)C(=O)c1ccccc1N2C [Compound 6],540,
101 to 500,,,,,,CC(C)Oc1cc(C(=O)N2CC[C@@H](NCCF)C2)ccc1Nc1cc2c(cn1)N(C)C(=O)c1ccccc1N2C [Compound T50],630,inhibition at 1 µM (TAO2; [2]): ≤ 35%; ABL or ARG Inhibition % at indicated screening concentration (ABL or ARG; screening concentration 1 μM): E (E is ≦35%); inhibition at 1 µM (ERK5; [3]): 75 to 90%; inhibition at 1 µM (ACK; [4]): ≤ 35%
,≤ 35,E (E is ≦35%),50 to 100,> 90,≤ 35,CCOc1cc(C(=O)N2CCC(O)CC2)ccc1Nc1cc2c(cn1)N(C)C(=O)c1ccccc1N2C [Compound 52],820,
≤ 50,,,,,,CCOc1cc(C(=O)N2CCC(N3CC[C@@H](O)C3)CC2)ccc1Nc1cc2c(cn1)N(C)C(=O)c1ccccc1N2C [Compound T10],650,inhibition at 1 µM (TAO2; [2]): ≤ 35%; ABL or ARG Inhibition % at indicated screening concentration (ABL or ARG; screening concentration 1 μM): E (E is ≦35%); inhibition at 1 µM (ERK5; [3]): > 90%; inhibition at 1 µM (ACK; [4]): ≤ 35%
,,,≤ 50,,,CCOc1cc(C(=O)NCCN(CC)CC)ccc1Nc1cc2c(cn1)N(C)C(=O)c1ccccc1N2C [Compound 103],620 ± 40,inhibition at 0.1 µM (TAO2; [9]): ≤ 35%; Kinase inhibition % at indicated screening concentration: ABL or ARG (ABL or ARG; screening concentration 0.1 μM): E (E is ≦35%); inhibition at 0.1 µM (ERK5; [10]): > 90%; inhibition at 0.1 µM (ACK; [11]): ≤ 35%
,,,≤ 50,,,CCOc1cc(C(=O)N2CCN(C(C)(C)C)CC2)ccc1Nc1cc2c(cn1)N(C)C(=O)c1ccccc1N2C [Compound 94],980,inhibition at 0.1 µM (TAO2; [9]): ≤ 35%; Kinase inhibition % at indicated screening concentration: ABL or ARG (ABL or ARG; screening concentration 0.1 μM): E (E is ≦35%); inhibition at 0.1 µM (ERK5; [10]): 75 to 90%; inhibition at 0.1 µM (ACK; [11]): ≤ 35%
,≤ 35,E (E is ≦35%),≤ 50,> 90,≤ 35,CCOc1cc(C(=O)N2CCC(CN3CCOCC3)CC2)ccc1Nc1cc2c(cn1)N(C)C(=O)c1ccccc1N2C [Compound 120],860,
,,,≤ 50,,,CCOc1cc(C(=O)N2CC[C@@H](N3CCCCC3)C2)ccc1Nc1cc2c(cn1)N(C)C(=O)c1occc1N2C [Compound 56],600 ± 190,inhibition at 0.1 µM (TAO2; [9]): ≤ 35%; Kinase inhibition % at indicated screening concentration: ABL or ARG (ABL or ARG; screening concentration 0.1 μM): E (E is ≦35%); inhibition at 0.1 µM (ERK5; [10]): > 90%; inhibition at 0.1 µM (ACK; [11]): ≤ 35%
